Laboratory results: US20150010932A1, “METHODS FOR ASSAYING PROTEIN-PROTEIN INTERACTIONS” (Salk Institute for Biological Studies, priority 2013, published 2015)
“Also recorded” adds a separate entry of the source. Each block holds one compound with its values, some of them ahead of it. Bridges are numbered along the chain shown (N, C = ends). [ ]: non-standard residue; d: D form. Ahx = NCCCCCC(=O)O

How the values were obtained:
Saos-2 cells = assay: Lactate dehydrogenase (LDH) leakage assay, Saos-2 cells; details: 25 μM and 10 μM, 6 hours, no serum
From the text: (§1) Accumulation of cytoplasmic lactate dehydrogenase (LDH) in the growth medium was used as a metric of cell membrane damage. LDH was detected by the CytoTox 96 Non-Radioactive Cytotoxicity Assay Kit (Promega). The 0.8% Triton X-100 treatment (Lysed) represents the maximum LDH leakage in this experiment and its reading was set to 100%. DMSO treatment served as the vehicle control and provided an indication of the presence of trace amounts of LDH in the serum and spontaneous LDH leakage from cells. The value obtained in the presence of DMSO was set to 0%. Data are shown as mean±SD (n=3). (B) Normal human fibroblasts (WS 1 cells) were treated exactly as in (A). Data are shown as mean±SD (n=3).S
(§2) Saos-2 and WS 1 cells were seeded into 96-well plates (20,000 cells per well) and incubated at 37° C. […] LDH leakage into media was detected by the CytoTox 96 Non-Radioactive Cytotoxicity Assay Kit (Promega G1780) per manufacture's protocol. Assay background was evaluated by using the LDH reading from wells containing only media and PPI antagonists with or without 10% FBS and was subtracted from the values obtained in the presence of the PPI antagonists. Cells lysed by 0.8% Triton X-100 (provided by the Kit), a concentration sufficient to ensure lyse all cells but low enough not to interfere with the LDH assay, represents the maximum LDH leakage in this experiment and its reading is set to 100%. […]

[1] = test system: Normal human fibroblasts (WS1 cells); assay: Lactate dehydrogenase (LDH) leakage assay, WS1 fibroblasts; format: cell-based; details: 25 μM and 10 μM, 6 hours, no serum
From the text: as §1, §2

p53-Mdm2 complexes [2] = target: T1, p53-Mdm2 complexes (Homo sapiens, UniProt Q00987); assay: Real-time BiLC (ReBiL) assay in living cells, p53-Mdm2 reporter (Saos-2 134-385); format: cell-based
T1 construct: cLuc-linker-FLAG-Mdm2-108 (generated); cLuc (C-terminal split firefly luciferase fragment, amino acids 398-550); expressed in transfected cells; host or cells: Saos-2 134-385 (single-copy RMCE integration, doxycycline-induced); the lysate assay text says Saos-2 or U2OS reporter cells
T1 sequence (Q00987 2-108, one chain of several): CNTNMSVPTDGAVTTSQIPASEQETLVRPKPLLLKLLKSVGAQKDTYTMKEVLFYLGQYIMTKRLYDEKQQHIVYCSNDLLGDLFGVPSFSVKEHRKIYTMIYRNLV
Method: Data shown are mean±standard deviation (n=8). […] Actin was used as a loading control. […] Luminescent signals were measured every 10 minutes for 10 hours in a Tecan-M200 at 37° C. Data shown are mean±standard deviation (n=4). […] The nLuc-p53 and cLuc-Mdm2 fusion proteins were detected by anti-FLAG and anti-HA antibodies, respectively, and Actin was used as a loading control.
At Time=0, the cells were washed with Dulbecco's modified Eagle medium (DMEM) once, and treated with new media containing different PPI antagonists and with or without 10% fetal bovine serum (FBS).
Two strategies were used to avert cytotoxicity or cell cycle arrest that could be generated by wild type p53 activation. First, p53 null Saos-2 cells were used as the host cell line for ReBiL reporters.
The Saos-2 ReBiL reporter cells were washed, trypsinized and cell numbers were determined. […] Supernatants were discarded, ReBiL reporter cells were resuspended with DMEM/F12 (phenol-red free) and 20 μl cells were pipetted into each well. […]
(a) The following protocol was used to evaluate small molecule PPI antagonists. […] The next day, the cells were washed, trypsinized, and cell numbers were determined. […] The plate was sealed with a MicroAmp Optical Adhesive Film, and luminescence was measured in a Tecan M200: integration time 2 seconds, 5˜10 minutes per cycle for total 6 hours at 37° C.

p53-Mdm4 complexes [3] = target: T2, p53-Mdm4 complexes (Homo sapiens, UniProt O15151); assay: Real-time BiLC (ReBiL) assay in living cells, p53-Mdm4 reporter (Saos-2 134-354)
T2 sequence (O15151 2-111): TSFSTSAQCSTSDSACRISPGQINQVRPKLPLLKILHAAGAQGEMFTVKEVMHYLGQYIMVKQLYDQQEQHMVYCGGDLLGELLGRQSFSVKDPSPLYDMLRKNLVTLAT

p53-Mdm2 complexes [4] = target: T1, p53-Mdm2 complexes; assay: BiLC assay using cell lysates, p53-Mdm2; format: biochemical; details: no FBS
Method: FIGS. 5A and 5B show a set of graphs illustrating that the BiLC lysate assay can be used to determine if serum prevents SAH peptides from disrupting p53-Mdm2 or p53-Mdm4 complexes. (A) Cell lysates obtained from nLuc-p53 and cLuc-Mdm2 or nLuc-p53 and cLuc-Mdm4 ReBiL expressing reporter cells were incubated with the indicated PPI antagonists in the absence of FBS in a 384-well plate at room temperature for 10 minutes. Steady-Glo luciferase reagent was added, and luminescence was measured in a Tecan M200 luminometer at 26° C. Data are shown as mean±standard deviation (n=3) and normalized to the luminescent reading of DMSO (set to 100%). (B) The BiLC lysate assays were identical to (A) except for the inclusion of 10% FBS. Data are shown as mean±standard deviation (n=3) and normalized to the luminescent reading of DMSO (set to 100%).
(§3) (A) Small molecule PPI antagonists were tested in p53-Mdm2 and p53-Mdm4 BiLC lysate assays without FBS. […] Data are shown as mean±standard deviation (n=3) and normalized to the luminescent reading of DMSO (set to 100%).
The 4× concentrated drugs diluted in DMEM/F12 media were pipetted into 384 well plates, 10 μl per well. […] 20 μl of luciferin reagents were added (Promega Bright-Glo E2620 or Steady-Glo E2520) into each well and luminescence was measured in a Tecan M200: integration time 0.5 seconds, 3˜5 minutes per cycle for total 30 minutes at 26° C.

p53-Mdm4 complexes [5] = target: T2, p53-Mdm4 complexes; assay: BiLC assay using cell lysates, p53-Mdm4; format: biochemical; parameters: 2-111) was cloned into pLi317; cLuc (C-terminal split firefly luciferase fragment, amino acids 398-550; expressed in transfected cells; host or cells: Saos-2 134-354 (single-copy RMCE integration, doxycycline-induced); the lysate assay text says Saos-2 or U2OS reporter cells; details: no FBS
Method: (A) Cell lysates obtained from nLuc-p53 and cLuc-Mdm2 or nLuc-p53 and cLuc-Mdm4 ReBiL expressing reporter cells were incubated with the indicated PPI antagonists in the absence of FBS in a 384-well plate at room temperature for 10 minutes. Steady-Glo luciferase reagent was added, and luminescence was measured in a Tecan M200 luminometer at 26° C. Data are shown as mean±standard deviation (n=3) and normalized to the luminescent reading of DMSO (set to 100%). (B) The BiLC lysate assays were identical to (A) except for the inclusion of 10% FBS. Data are shown as mean±standard deviation (n=3) and normalized to the luminescent reading of DMSO (set to 100%).
as §3
The 4× concentrated drugs diluted in DMEM/F12 media were pipetted into 384 well plates, 10 μl per well. Cells were washed with PBS-twice and lysed with PLB buffer (100 mM Tris-HCl pH 7.5; 0.5 mM EDTA; 150 mM NaCl; 0.1% Triton X-100, 1 mM sodium orthovanadate, 50 mM sodium fluoride, and Roche Complete Mini Protease Inhibitor Cocktail). […] The clear lysates were collected, diluted with DMEM (˜300 μl DMEM added into 100 μl lysates); 10 μl of diluted lysates were pipetted into each of the 384-wells, and the plates were incubated at room temperature for 10 minutes. 20 μl of luciferin reagents were added (Promega Bright-Glo E2620 or Steady-Glo E2520) into each well and luminescence was measured in a Tecan M200: integration time 0.5 seconds, 3˜5 minutes per cycle for total 30 minutes at 26° C.

[6] = target: T3, Mdm2-Mdm4 N-terminal BiLC pair (Homo sapiens, UniProt O15151+Q00987); assay: Real-time BiLC assay in U2OS Mdm4-111/Mdm2-108 ReBiL reporter cells (U2OS 134-544); format: cell-based; details: U2OS 134-544 cells, compound with doxycycline at Time=0, 24 hours
T3 construct: linker-FLAG-Mdm2-108 (generated by; 2-111) was cloned into pLi223; cLuc (split firefly luciferase amino acids 398-550); nLuc (split firefly luciferase amino acids 1-416); expressed in transfected cells; host or cells: U2OS 134-544 (RMCE integration, doxycycline-induced)
T3 sequence (Q00987 2-108, one chain of several): as the sequence (Q00987 2-108, one chain of several) above
From the text: Data are shown as mean±standard deviation (n=6). […] Data are shown as mean±standard deviation (n=4).

[7] = living Saos-2 cells, doxycycline withdrawal, small molecule protocol

Compound: COc1ccc(C2=N[C@@H](c3ccc(Cl)cc3)[C@@H](c3ccc(Cl)cc3)N2C(=O)N2CCNC(=O)C2)c(OC(C)C)c1 [Nutlin-3a]
LDH leakage (cell membrane damage), absence of serum (Saos-2 cells): failed to induce membrane leakage
LDH leakage (cell membrane damage), absence of serum [1]: failed to induce membrane leakage

Compound: MI-219
Ability to interfere selectively with p53-Mdm2 interaction (p53-Mdm2 complexes [2]; ReBiL strategy): interfere selectively with p53-Mdm2 interaction was confirmed

p53-Mdm2 disruption in lysate BiLC assay, without FBS (p53-Mdm2 complexes [4]): no activity
Compound: CCOc1cc(/C=C2/C(=O)N(c3ccccc3)N=C2C)cc(Cl)c1OCC(=O)OC [SJ-172550]
p53-Mdm4 BiLC signal (newly synthesized complexes) (p53-Mdm4 complexes [3]; living Saos-2 134-354 cells, compound added with doxycycline at Time=0, 10% FBS): No decrease in p53-Mdm4 luciferase signal was detected; also recorded: virtually no activity
p53-Mdm4 disruption in lysate BiLC assay, without FBS (p53-Mdm4 complexes [5]): no activity; also recorded: poor p53/Mdm4 antagonist

Compound: cyclo(ACICRGNGYCG[Ahx]TSFAEYWNLLSGVCPKILQRCRRDSDCPG) (disulfide 2-26, 4-33, 10-39) [McoTi-1-PMI]
LDH leakage (cell membrane damage), absence of serum (Saos-2 cells): all except one (McoTi-1-PMI), damage cell membranes

Compound: RO-5963
Disruption of pre-formed p53-Mdm4 BiLC complexes (p53-Mdm4 complexes [3]; [7]): did not efficiently disrupt
Disruption of pre-formed p53-Mdm2 BiLC complexes (p53-Mdm2 complexes [2]; [7]): did not efficiently disrupt
Mdm2-Mdm4 N-terminal domain association (luminescent signal) [6]: increased luminescent signals were detected
p53-Mdm2 disruption in lysate BiLC assay, without FBS (p53-Mdm2 complexes [4]): no activity
p53-Mdm4 disruption in lysate BiLC assay, without FBS (p53-Mdm4 complexes [5]): no activity
